These results are taken from paper PMC5540152 (Cell reports, 2017).

Ends that are not written are not given here. A value given as a limit tells only on which side of the number the result lay.

Experiment [1] concerns the target T1, CaMKII (Homo sapiens, UniProt Q9UQM7). Particulars: stimulated CaMKII activity; ref Coultrap and Bayer, 2011; cited from earlier work.
In experiment [2] the target is T1, CaMKII. Nature of the experiment: Kinetics of CaMKII inhibition. Type of experiment: biochemical.

T1 sequence (Q9UQM7 whole entry): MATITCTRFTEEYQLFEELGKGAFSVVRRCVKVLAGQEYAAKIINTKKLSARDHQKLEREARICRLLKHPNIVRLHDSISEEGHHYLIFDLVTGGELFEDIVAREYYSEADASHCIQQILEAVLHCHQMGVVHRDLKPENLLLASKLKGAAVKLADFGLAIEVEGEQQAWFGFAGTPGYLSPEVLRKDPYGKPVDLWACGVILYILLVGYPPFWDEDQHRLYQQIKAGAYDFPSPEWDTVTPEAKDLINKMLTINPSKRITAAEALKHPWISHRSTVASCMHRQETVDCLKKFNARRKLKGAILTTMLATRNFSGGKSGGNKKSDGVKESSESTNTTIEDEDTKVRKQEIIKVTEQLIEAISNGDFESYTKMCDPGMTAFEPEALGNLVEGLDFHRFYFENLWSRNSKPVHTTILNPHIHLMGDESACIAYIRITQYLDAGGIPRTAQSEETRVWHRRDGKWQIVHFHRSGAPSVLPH

As to KRAPKLGQIGRQKAVDIED [CN19o], at CaMKII [1], the enhancement of potency is recorded as more than 250 fold and the enhancement of selectivity is on record as more than 250 fold. Further, the “α-factor compared to the parent compounds” value on CaMKII [2] (vs CN19 and CN19a2v) is recorded as “minimal effect on the α-factor”. Besides, the “Ki compared to the parent compounds” value at CaMKII [2] (vs parent compounds CN19 and CN19a2v) is listed as “dramatically improved”.
